{"source": "patent US12622947B2", "about": "“Pharmaceutical composition for treating levodopa-induced dyskinesia or for suppressing progression thereof” (PEPTRON, INC., priority 2019, dated 2026)", "origin": "cited, not measured here", "key": {"[1]": {"settings": "compared to GLP-1-Tf (Martin et al., 2012)"}, "[2]": {"tested_on": "MPTP mouse model", "settings": "given daily for 7 days after treatment (Liu et al., 2015)"}, "[3]": {"settings": "in vivo"}}}
{"substance": "Exendin-4", "values": [{"measurement": "rotarod performance", "setting": "[1]", "value": "improve rotarod performance"}, {"measurement": "neuro-protection", "setting": "[2]", "value": "not effective"}, {"measurement": "crossing the BBB / entry into the brain from blood", "setting": "[3]", "value": "enter the brain from blood although its entry speed is limited"}]}
